Data on nine compounds can be found in ChEMBL document CHEMBL5260846, “Emerging targets and potential therapeutic agents in non-alcoholic fatty liver disease treatment” (Eur J Med Chem, 2020).

Usually EC50 stands for the midpoint of the concentration-response curve. The EC90 is the point of the concentration-response curve where the effect stands at 90%. As a reminder, the Ki is a dissociation constant, usually derived from enzyme kinetics or from competition with a known ligand. One may read the IC50 as the concentration needed to halve the response being measured. A lower IC50 goes with higher potency.

Structures are written as SMILES.

Test [1] deals with T1, Peroxisome proliferator-activated receptor alpha (Mus musculus, UniProt P23204).
T1 sequence (P23204 whole entry): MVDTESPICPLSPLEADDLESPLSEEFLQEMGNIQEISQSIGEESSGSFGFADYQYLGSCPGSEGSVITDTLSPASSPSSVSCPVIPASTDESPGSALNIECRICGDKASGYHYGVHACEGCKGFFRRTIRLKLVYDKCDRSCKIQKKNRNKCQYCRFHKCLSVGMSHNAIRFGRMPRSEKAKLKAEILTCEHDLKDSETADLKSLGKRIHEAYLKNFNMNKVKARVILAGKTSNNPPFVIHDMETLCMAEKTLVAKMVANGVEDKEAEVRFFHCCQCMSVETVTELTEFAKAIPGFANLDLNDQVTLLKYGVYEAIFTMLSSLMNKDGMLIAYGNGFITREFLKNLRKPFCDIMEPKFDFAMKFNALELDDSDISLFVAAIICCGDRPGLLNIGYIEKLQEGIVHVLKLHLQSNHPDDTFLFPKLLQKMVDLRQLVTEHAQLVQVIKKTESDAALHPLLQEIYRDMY
Kind of test: Agonist activity at mouse PPARalpha.

Test [2] deals with T2, Peroxisome proliferator-activated receptor alpha (Homo sapiens, UniProt Q07869).
T2 sequence (Q07869 whole entry): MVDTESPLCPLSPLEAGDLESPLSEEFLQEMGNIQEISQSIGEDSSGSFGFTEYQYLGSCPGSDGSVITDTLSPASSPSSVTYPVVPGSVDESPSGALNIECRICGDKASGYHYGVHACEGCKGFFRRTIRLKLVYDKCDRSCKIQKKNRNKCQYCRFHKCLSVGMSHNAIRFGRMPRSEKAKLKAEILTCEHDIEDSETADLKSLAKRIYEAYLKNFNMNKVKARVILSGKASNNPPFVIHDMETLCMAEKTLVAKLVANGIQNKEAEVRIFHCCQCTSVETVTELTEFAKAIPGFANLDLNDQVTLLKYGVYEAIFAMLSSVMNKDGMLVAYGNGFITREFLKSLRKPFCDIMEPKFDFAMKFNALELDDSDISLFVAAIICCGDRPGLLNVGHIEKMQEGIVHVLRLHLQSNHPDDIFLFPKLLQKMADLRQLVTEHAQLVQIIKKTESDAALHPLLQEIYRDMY
Kind of test: Binding affinity to PPARalpha (unknown origin).

The target of test [3] is T3, Peroxisome proliferator-activated receptor gamma (Homo sapiens, UniProt P37231).
T3 sequence (P37231 whole entry): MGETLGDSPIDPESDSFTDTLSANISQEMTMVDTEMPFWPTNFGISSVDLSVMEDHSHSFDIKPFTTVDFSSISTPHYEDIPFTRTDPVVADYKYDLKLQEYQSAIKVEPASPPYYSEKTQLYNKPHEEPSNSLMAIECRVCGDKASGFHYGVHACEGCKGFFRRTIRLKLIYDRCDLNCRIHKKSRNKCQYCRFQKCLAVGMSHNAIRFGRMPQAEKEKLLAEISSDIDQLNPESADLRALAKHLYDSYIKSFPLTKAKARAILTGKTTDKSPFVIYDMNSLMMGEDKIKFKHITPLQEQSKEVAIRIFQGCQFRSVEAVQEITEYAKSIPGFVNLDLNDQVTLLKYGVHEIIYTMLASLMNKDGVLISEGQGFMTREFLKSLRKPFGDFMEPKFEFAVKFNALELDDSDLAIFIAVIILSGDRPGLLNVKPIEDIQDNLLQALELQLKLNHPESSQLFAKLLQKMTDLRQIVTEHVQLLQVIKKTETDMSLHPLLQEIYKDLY
Kind of test: Agonist activity at PPARgamma (unknown origin) assessed as transcriptional activation.

Test [4] concerns the target T2, Peroxisome proliferator-activated receptor alpha. Kind of test: Agonist activity at PPARalpha (unknown origin) assessed as transcriptional activation.
For test [5] the target is unchanged. Kind of test: Agonist activity at PPARalpha (unknown origin).
The test system of test [6] is Human immunodeficiency virus 1. Kind of test: Antiviral activity against M tropic HIV-1 Ba-L infected in human HeLa-MAGI-CCR5 cells assessed as inhibition of viral replication. The class given is functional, organism-based. The note with it: Human immunodeficiency virus 1, Ba-L.
Test [7] deals with C-C chemokine receptor type 5 (Homo sapiens, UniProt P51681). Kind of test: Antagonist at CCR5 (unknown origin) assessed as inhibitory constant.
Another test concerns Hepatocyte. Kind of test: Anti-fibrosis effect in CCl4 induced lipid peroxidation in rat hepatocytes by measuring MDA formation incubated for 1 hr by TBARS method. The class given is functional, cell-based.
The target in test [8] is T2, Peroxisome proliferator-activated receptor alpha. Kind of test: Agonist activity at PPARalpha in human HepG2 cells. The class given is cell-based.
Test [9] concerns the target T4, Peroxisome proliferator-activated receptor delta (Homo sapiens, UniProt Q03181).
T4 sequence (Q03181 whole entry): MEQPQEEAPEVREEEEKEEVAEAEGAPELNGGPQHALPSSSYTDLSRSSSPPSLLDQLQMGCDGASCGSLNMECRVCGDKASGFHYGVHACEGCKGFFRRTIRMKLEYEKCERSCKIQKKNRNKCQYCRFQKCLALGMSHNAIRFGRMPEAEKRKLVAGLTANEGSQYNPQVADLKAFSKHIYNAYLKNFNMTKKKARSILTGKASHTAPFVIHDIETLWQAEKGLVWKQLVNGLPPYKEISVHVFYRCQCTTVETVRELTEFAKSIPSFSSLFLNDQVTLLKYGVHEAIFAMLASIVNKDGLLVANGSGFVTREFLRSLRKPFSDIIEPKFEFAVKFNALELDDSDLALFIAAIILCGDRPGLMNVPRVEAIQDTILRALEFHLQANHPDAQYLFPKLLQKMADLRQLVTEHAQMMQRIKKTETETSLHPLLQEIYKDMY
Kind of test: Agonist activity at PPARdelta (unknown origin).

Chain of C-C chemokine receptor type 5 (P51681 whole entry): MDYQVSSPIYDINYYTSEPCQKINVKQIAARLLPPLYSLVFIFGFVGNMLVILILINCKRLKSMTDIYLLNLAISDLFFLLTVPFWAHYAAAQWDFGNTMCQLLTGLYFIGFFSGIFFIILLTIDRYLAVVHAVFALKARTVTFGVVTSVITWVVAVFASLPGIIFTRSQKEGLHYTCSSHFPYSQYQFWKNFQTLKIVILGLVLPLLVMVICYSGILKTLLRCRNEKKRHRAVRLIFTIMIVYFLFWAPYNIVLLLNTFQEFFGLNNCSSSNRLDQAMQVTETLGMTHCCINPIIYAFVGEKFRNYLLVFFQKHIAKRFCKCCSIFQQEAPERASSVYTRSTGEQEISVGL

`CC(C)(Oc1ccc(CCNC(=O)c2ccc(Cl)cc2)cc1)C(=O)O` [BEZAFIBRATE] displayed an EC50 in test [1] of 50 µM. `COc1ccc(Oc2cc(N(C)CCOc3ccc(CC4SC(=O)NC4=O)cc3)ncn2)cc1` (configuration not stated) [LOBEGLITAZONE]: the EC50 in test [2] came out at 20 µM. Consider `CSc1ccc(C(=O)/C=C/c2cc(C)c(OC(C)(C)C(=O)O)c(C)c2)cc1` [ELAFIBRANOR], for which the EC50 was found to be 0.175 µM in test [3] and 0.045 µM in test [4]. For `Cc1ccc(C)c(OCCCC(C)(C)C(=O)O)c1` [GEMFIBROZIL], the EC50 in test [5] turned out to be 15.2 µM. With `Cc1ccc(-c2ccc3c(c2)C=C(C(=O)Nc2ccc(C[N+](C)(C)C4CCOCC4)cc2)CCC3)cc1`, in test [6], the EC50 worked out at 0.0012 µM and the EC90 is 0.0057 µM. Moreover, in test [7], the Ki was determined as 0.0011 µM. Regarding `O=C(/C=C/c1ccc(O)c2c1[C@@H](C(=O)O[C@H](Cc1ccc(O)c(O)c1)C(=O)O)[C@H](c1ccc(O)c(O)c1)O2)O[C@H](Cc1ccc(O)c(O)c1)C(=O)O`, it took 2750 µM to reach half-maximal inhibition with Hepatocyte (IC50). Take `CCO[C@@H](Cc1ccc(OCCn2c(C)ccc2-c2ccc(SC)cc2)cc1)C(=O)O` [SAROGLITAZAR]: the response in test [8] was half-maximal at 0.65 pM (EC50). For `CCCc1c(OCCCOc2ccc(OCC(=O)O)cc2)ccc(C(C)=O)c1O`, in [9], the half-maximal effective concentration (EC50) worked out at 0.05 µM. For `CCOC(=O)C(C)(C)Oc1ccc(Cl)cc1` [CLOFIBRATE], the response in [1] was half-maximal at 55 µM (EC50).
